{
  "source": "patent US12466814B2",
  "about": "“Sterically shielded heptamethine cyanine dyes” (UNIVERSITY OF NOTRE DAME DU LAC, priority 2020, dated 2025)",
  "key": {"[1]": {"molecular_target": "T1, bovine serum albumin (BSA) (Bos taurus, UniProt P02769)", "T1 construct": "a solution of bovine serum albumin (BSA, 2 μM) at 37° C; purchased", "T1 sequence (P02769 25-607)": "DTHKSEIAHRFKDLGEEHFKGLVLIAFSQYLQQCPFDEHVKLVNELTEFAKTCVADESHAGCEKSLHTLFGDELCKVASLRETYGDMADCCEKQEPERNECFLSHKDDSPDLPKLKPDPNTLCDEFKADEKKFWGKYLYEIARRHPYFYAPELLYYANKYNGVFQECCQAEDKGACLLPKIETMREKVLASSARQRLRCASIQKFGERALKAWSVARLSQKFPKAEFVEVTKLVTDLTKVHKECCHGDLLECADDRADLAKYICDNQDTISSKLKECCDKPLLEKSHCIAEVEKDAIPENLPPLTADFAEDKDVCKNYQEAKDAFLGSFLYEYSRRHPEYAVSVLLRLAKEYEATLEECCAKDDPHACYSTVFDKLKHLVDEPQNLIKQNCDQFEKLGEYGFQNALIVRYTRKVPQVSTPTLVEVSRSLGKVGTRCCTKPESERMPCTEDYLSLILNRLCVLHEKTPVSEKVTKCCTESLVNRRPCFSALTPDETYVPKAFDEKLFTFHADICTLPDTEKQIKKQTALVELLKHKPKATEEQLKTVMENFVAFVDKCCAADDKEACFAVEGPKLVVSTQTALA", "assay": "Albumin binding, dye fluorescence with and without BSA", "settings": "PBS, presence and absence of BSA (2 μM)", "protocol": "The second set of titration experiments measured the fluorescence intensity for samples of 756z and s775z at different concentrations in the presence and absence of BSA (2 μM)."}, "[2]": {"assay": "Quantum yield and fluorescence brightness relative to UL766", "type": "physicochemical", "excerpt": "The fluorescence spectrum of each solution was obtained with excitation at 730 nm, and the integrated area was used in the quantum yield calculation by the following equation:\n[formula] where η is the refractive index of the solvent, I is the integrated fluorescence intensity, and A is the absorbance at a chosen wavelength. […]"}, "[3]": {"assay": "Water solubility and storage of aqueous stock solutions", "type": "physicochemical", "settings": "1 mM in water"}, "[4]": {"assay": "Photostability, Xenon lamp irradiation", "type": "physicochemical", "experimental": "FIG. 2. Two separate photostability studies. (a) Lamp irradiation: Four separate cuvettes, each containing 1 μM dye in PBS buffer, pH 7.4, were irradiated by a 150 W Xenon lamp with a 620 nm long-pass filter. The plot of normalized dye absorbance versus time was fit to a one-phase exponential decay. […] The length scale bar on each NIR fluorescence image is 1 cm.\nPhotostability Measurements. Lamp Irradiation: A solution of dye (1 μM) in PBS buffer, pH 7.4, was placed in a 1×1×4 cm^3 cuvette that was exposed to air and irradiated at a distance of 3 cm by a 150 W Xenon lamp with a 620 nm long-pass filter. An absorbance spectrum was recorded every 10 min. The normalized maximum absorbance of dye was plotted against time and fitted to a non-linear regression, one-phase exponential decay. […] A 1.5 mL vial containing the solution was irradiated at a distance of 3 cm by a 150 W Xenon lamp with a 620 nm long-pass filter."}, "[5]": {"assay": "Absorption and emission spectral properties of dyes", "type": "physicochemical", "settings": "for λabs max: monomer (m) band where an aggregate band is also listed", "experimental": "General. Reagents and solvents were purchased from Sigma-Aldrich, VWR, Oakwood, Thermo Fisher and TCI and used without further purification unless stated otherwise. Anhydrous tetrahydrofuran was distilled with metal sodium and benzophenone. Column chromatography was performed using Biotage SNAP Ultra columns. ^1H, ^13C and ROESY NMR spectra were recorded on a Bruker 500 NMR spectrometer. Chemical shifts are presented in ppm and referenced by residual solvent peak. High-resolution mass spectrometry (HRMS) was performed using a time-of-flight (TOF) analyzer with electrospray ionization (ESI). Absorption spectra were recorded on an Evolution 201 UV/vis spectrometer with Thermo Insight software. Fluorescence spectra were collected on a Horiba Fluoromax-4 fluorometer with FluoroEssence software. Analyte solutions were prepared in HPLC grade water (Sigma-Aldrich), phosphate buffered saline (Thermo Fisher), fetal bovine serum (Sigma-Aldrich) or buffer B (575 mM NaCl, 37.5 mM NaH2PO4 and 0.75 mM EDTA in water, pH 7.5). All absorption and fluorescence spectra were collected using quartz cuvettes (1 mL, 1 cm path length; for emission and excitation spectra, slit width=3 nm)."}, "[6]": {"assay": "Dye self-aggregation by absorption/excitation spectra", "type": "physicochemical", "settings": "in water / aqueous media, absorption spectra", "description": "Self-aggregation of heptamethine cyanine dyes is readily indicated by conversion of monomer absorption bands into aggregate bands, in this case blue-shifted H-aggregates."}, "[7]": {"molecular_target": "T1, bovine serum albumin (BSA)", "assay": "Albumin binding, quenching of BSA tryptophan fluorescence", "experimental": "FIG. 13. […] The relative fluorescence intensity at 335 nm was determined using the following equation, where F0 is the initial fluorescence intensity, F is the fluorescence intensity after each aliquot addition of dye, and the slope of the trend line (m) corresponds to Ka±SD.\nAlbumin Binding Measurements. Two separate sets of titration experiments were performed. The first set of titration experiments measured quenching of bovine serum albumin (BSA) tryptophan fluorescence as dye was added incrementally. […] After each aliquot addition, the solution was mixed and allowed to equilibrate for 5 min before spectral acquisition."}, "[8]": {"settings": "meso linkage is not cleaved by biological amines or thiols; cited from earlier work"}, "[9]": {"assay": "Antibody conjugate absorbance and fluorescence", "type": "physicochemical", "settings": "value used in degree of labeling calculation", "experimental": "Antibody Conjugate Absorbance. Absorbance spectra of goat IgG antibody bioconjugates were collected in buffer B (575 mM NaCl, 37.5 mM NaH2PO4 and 0.75 mM EDTA in water, pH 7.5) using Implen NanoPhotometer NP80. Spectra were normalized to absorbance at 280 nm.\nAntibody Conjugate Fluorescence. […] The fluorescence emission spectra were divided by the fluorescence emission intensity at 355 nm (ex: 280 nm, slit width: 2 nm) to obtain corrected spectra that accounts for variations in antibody concentration."}},
  "note": "Values joined by “and” are separate entries in the source; they are usually repeats but may differ in a detail not shown here. Equal values may be shown once. Marks after values point to notes of the source that are not given here.",
  "data": [
    {"molecule": "CC1(C)C(/C=C/C2=C(c3ccc(C(=O)O)cc3)C(=C/C=C3/N(CCC[N+](C)(C)C)c4ccc(S(=O)(=O)O)cc4C3(C)C)/CCC2)=[N+](CCC[N+](C)(C)C)c2ccc(S(=O)(=O)O)cc21", "note": "[Dye 756z]", "values": [
      {"measurement": "Effect of BSA on dye fluorescence", "setting": "[1]", "result": "no effect on the dye fluorescence"},
      {"measurement": "Brightness (fluorescence brightness = ε × QY)", "setting": "[2]; PBS pH 7.4, error ±15%", "result": "9,600"},
      {"measurement": "QY", "setting": "[2]; PBS pH 7.4, relative to UL766, error ±10%", "result": 0.097},
      {"measurement": "Quantum yield", "setting": "[2]; pH 7.4 PBS, relative to UL766, error ±10%", "result": "9.7^[b] %"},
      {"measurement": "Storage of 1 mM stock solution in water", "setting": "[3]", "result": "forms a precipitate after 24 hr"},
      {"measurement": "k, rate constant of first-order decay", "setting": "[4]; pH 7.4 PBS, 150 W Xenon lamp irradiation, 620 nm long-pass filter, 23° C., 1 μM dye", "result": 0.00037, "unit": "s⁻¹"},
      {"measurement": "Order of photostabilities", "setting": "[4]; separate cuvettes, dye in PBS, Xenon lamp >620 nm", "result": "s775z>756z>UL766>ICG"},
      {"measurement": "SS (Stokes shift)", "setting": "[5]; 2 μM BSA in pH 7.4 PBS", "result": 18, "unit": "nm"},
      {"measurement": "ε", "setting": "[5]; 2 μM BSA in pH 7.4 PBS", "result": "107,000 M^−1cm^−1"},
      {"measurement": "λabs max, aggregate (a) band", "setting": "[5]; 2 μM BSA in pH 7.4 PBS", "result": "681 (a)/ nm"},
      {"measurement": "λem max", "setting": "[5]; 2 μM BSA in pH 7.4 PBS", "result": 773, "unit": "nm"},
      {"measurement": "λabs max", "setting": "[5]; 2 μM BSA in pH 7.4 PBS", "result": "755 (m) nm"},
      {"measurement": "SS (Stokes shift)", "setting": "[5]; 100% FBS", "result": 16, "unit": "nm"},
      {"measurement": "ε", "setting": "[5]; 100% FBS", "result": "118,000 M^−1cm^−1"},
      {"measurement": "λabs max, aggregate (a) band", "setting": "[5]; 100% FBS", "result": "682 (a)/ nm"},
      {"measurement": "λem max", "setting": "[5]; 100% FBS", "result": 774, "unit": "nm"},
      {"measurement": "λabs max", "setting": "[5]; 100% FBS", "result": "758 (m) nm"},
      {"measurement": "SS (Stokes shift)", "setting": "[5]; H2O", "result": 17, "unit": "nm"},
      {"measurement": "ε", "setting": "[5]; H2O", "result": "56,000 M^−1cm^−1"},
      {"measurement": "λabs max, aggregate (a) band", "setting": "[5]; H2O", "result": "681 (a)/ nm"},
      {"measurement": "λem max", "setting": "[5]; H2O", "result": 773, "unit": "nm"},
      {"measurement": "λabs max", "setting": "[5]; H2O", "result": "756 (m) nm"},
      {"measurement": "SS (Stokes shift)", "setting": "[5]; PBS pH 7.4", "result": 17, "unit": "nm"},
      {"measurement": "λabs max, aggregate (a) band", "setting": "[5]; PBS pH 7.4, room temperature", "result": "681 (a)^[f] nm and 681 (a)/ nm"},
      {"measurement": "λem max", "setting": "[5]; PBS pH 7.4, room temperature", "result": 773, "unit": "nm"},
      {"measurement": "λabs max", "setting": "[5]; PBS pH 7.4, room temperature", "result": "756 (m)^[f] nm and 756 (m) nm"},
      {"measurement": "ε", "setting": "[5]; PBS pH 7.4, room temperature, monomer band", "result": "99,000 (0.942)^[b] M^−1cm^−1 and 99,000 M^−1cm^−1"},
      {"measurement": "Aggregation state", "setting": "[6]", "result": "exists largely as non-fluorescent H-aggregates"},
      {"measurement": "Ka relative to Ka for BSA association with ICG", "setting": "[7]", "result": "about 40 times lower"},
      {"measurement": "Ka for BSA", "setting": "[7]; BSA 2 μM, 37° C., tryptophan fluorescence quenching", "result": 16000, "unit": "M⁻¹"},
      {"measurement": "Dye/BSA affinity", "setting": "[7]; tryptophan quenching titration", "result": "weak dye/BSA affinity"},
      {"measurement": "Stable to nucleophiles", "setting": "[8]", "result": "Yes"},
      {"measurement": "ϵmax for the monomer peak", "setting": "[9]", "result": "111,000 M^−1 cm^−1"}
    ]}
  ]
}
